Measurements from PubChem BioAssay (NCI).
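Method: 48-hour compound exposure of cells in 96-well plates, five concentrations, linear interpolation of endpoints. GI50: concentration for 50% inhibition of growth. At the TGI there is no net growth.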

What was measured:
Assay in all cases: inhibition of tumour cell growth, NCI panel, 48 h
[1] = test system: MDA-MB-468 breast
[2] = test system: UACC-62 melanoma
[3] = test system: A498 renal
[4] = test system: SN12C renal
[5] = test system: NCI-H23 lung
[6] = test system: NCI-H226 lung
[7] = test system: SF-539 CNS
[8] = test system: K-562 leukemia
[9] = test system: SF-268 CNS
[10] = test system: OVCAR-5 ovarian
[11] = test system: MDA-MB-231 breast
[12] = test system: SK-MEL-5 melanoma
[13] = test system: HT29 colon
[14] = test system: NCI-H460 lung
[15] = test system: A549 NSCLC
[16] = test system: EKVX NSCLC
[17] = test system: OVCAR-4 ovarian
[18] = test system: HL-60(TB) leukemia
[19] = test system: MALME-3M melanoma
[20] = test system: TK-10 renal
[21] = test system: UACC-257 melanoma
[22] = test system: HOP-62 NSCLC
[23] = test system: HCT-15 colon
[24] = test system: MCF7 breast
[25] = test system: MOLT-4 leukemia
[26] = test system: SNB-75 CNS
[27] = test system: OVCAR-3 ovarian
[28] = test system: HS 578T breast
[29] = test system: SNB-19 CNS
[30] = test system: RXF 393 renal
[31] = test system: RPMI-8226 leukemia
[32] = test system: 786-0 renal
[33] = test system: OVCAR-8 ovarian
[34] = test system: PC-3 prostate
[35] = test system: DU-145 prostate
[36] = test system: HCC-2998 colon
[37] = test system: CCRF-CEM leukemia
[38] = test system: ACHN renal
[39] = test system: U251 CNS
[40] = test system: SK-OV-3 ovarian
[41] = test system: UO-31 renal
[42] = test system: NCI-H522 lung
[43] = test system: SW-620 colon
[44] = test system: SK-MEL-28 melanoma
[45] = test system: MDA-MB-435
[46] = test system: HCT-116 colon
[47] = test system: CAKI-1 renal
[48] = test system: T-47D breast
[49] = test system: SF-295 CNS
[50] = test system: HOP-92 NSCLC
[51] = test system: BT-549 breast
[52] = test system: LOX IMVI melanoma
[53] = test system: IGROV1 ovarian
[54] = test system: M14 melanoma
[55] = test system: KM12 colon
[56] = test system: COLO 205 colon

CCN(c1ccc(CO)c(Cl)c1)C(C)c1ccc(F)cc1 (stereo unspecified)
GI50 [1]: 0.64 µM | TGI [1]: 5.26 µM

Fc1cccc(COc2ccc(Nc3ncnc4sc(-c5ccco5)cc34)cc2Cl)c1
GI50 [1]: > 17.7 µM | TGI [1]: > 25 µM

CC[C@H](C)[C@H](NC(=O)c1cnccn1)C(=O)N(C)[C@H](C[C@@H](OC(C)=O)c1nc(C(=O)N[C@@H](Cc2ccccc2)C[C@H](C)C(=O)OC)cs1)C(C)C
GI50 [1]: 0.595 µM | TGI [1]: 29.8 µM

COC(=O)c1ccc2c(c1)C(NC(C)=O)CCc1cc(OC)c(OC)c(OC)c1-2 (stereo unspecified)
GI50 [1]: 0.0184 µM | TGI [1]: > 100 µM

Cc1cccc(NC(=O)c2sc3nc4c(cc3c2N)CCCC4)c1C
GI50 [1]: 0.339 µM | TGI [1]: > 100 µM

CCOC(=O)c1c(NC(=O)c2ccc(C(C)C)cc2)sc2c(CN(C)C)c(O)ccc12
GI50 [1]: 1.88 µM | TGI [1]: 4.09 µM

CS(=O)(=O)c1ccc(Cl)c([N+](=O)[O-])c1
GI50 [1]: 1.6 µM | TGI [1]: 3.47 µM

Clc1ccc(COC(Cn2ccnc2)c2ccc(Cl)cc2Cl)cc1 (stereo unspecified)
GI50 [1]: 2.02 µM | TGI [1]: 6.81 µM

CC1=CC(=O)CC(C)(C)[C@@]1(O)/C=C/C(C)=C\C(=O)O
GI50 [1]: 0.116 µM | TGI [1]: 0.308 µM

Cn1cc(C2=C(c3cn(C)c4ccc(N)cc34)C(=O)NC2=O)c2ccccc21
GI50 [1]: 7.35 µM | TGI [1]: > 25 µM

C#C[C@]1(O)CC[C@H]2[C@@H]3CC=C4c5nc(Nc6ccccn6)sc5CC[C@]4(C)[C@H]3CC[C@@]21C
GI50 [1]: 1.62 µM | TGI [1]: 5.15 µM

COc1ccc(Cl)cc1Nc1nc(C(F)(F)F)ccc1C(=O)NN
GI50 [1]: 3.88 µM | TGI [1]: > 85.9 µM

Clc1ccc(-c2ccc(OCCCN3CCN(c4ccncc4)CC3)cc2)cc1
GI50 [2]: 16.7 µM | TGI [2]: 30.5 µM | GI50 [3]: 15.8 µM | TGI [3]: 29.6 µM | GI50 [4]: 13 µM | TGI [4]: 26.3 µM | GI50 [5]: 13.9 µM | TGI [5]: 29.1 µM | GI50 [6]: 20.8 µM | TGI [6]: 55.8 µM | GI50 [7]: 12.5 µM | TGI [7]: 25.4 µM | GI50 [8]: 2.64 µM | TGI [8]: > 100 µM | GI50 [9]: 16.9 µM | TGI [9]: 36.5 µM | GI50 [10]: 14.5 µM | TGI [10]: 28.6 µM | GI50 [11]: 11.8 µM | TGI [11]: 24.7 µM | GI50 [12]: 14.9 µM | TGI [12]: 28.1 µM | GI50 [13]: 3.77 µM | TGI [13]: 14.8 µM | GI50 [14]: 7.47 µM | TGI [14]: 21.4 µM | GI50 [15]: 15.1 µM | TGI [15]: 29.9 µM | GI50 [16]: 12 µM | TGI [16]: 27.9 µM | GI50 [17]: 15.6 µM | TGI [17]: 41.7 µM | GI50 [18]: 4.46 µM | TGI [18]: 19.7 µM | GI50 [19]: 18.1 µM | TGI [19]: 32.7 µM | GI50 [20]: 19.6 µM | TGI [20]: 36.2 µM | GI50 [21]: 17.3 µM | TGI [21]: 32.6 µM | GI50 [22]: 14.7 µM | TGI [22]: 29 µM | GI50 [23]: 1.88 µM | TGI [23]: 3.82 µM | GI50 [24]: 6.19 µM | TGI [24]: 21.2 µM | GI50 [25]: 6.71 µM | TGI [25]: > 100 µM | GI50 [26]: 14.9 µM | TGI [26]: 32.5 µM | GI50 [27]: 13 µM | TGI [27]: 30.2 µM | GI50 [28]: 17.9 µM | TGI [28]: 45.3 µM | GI50 [29]: 15.7 µM | TGI [29]: 30 µM | GI50 [30]: 6.74 µM | TGI [30]: 20.6 µM | GI50 [31]: 6.95 µM | TGI [31]: > 100 µM | GI50 [32]: 14 µM | TGI [32]: 27.1 µM | GI50 [33]: 22 µM | TGI [33]: 68.1 µM | GI50 [34]: 8.43 µM | TGI [34]: 51.3 µM | GI50 [35]: 17.9 µM | TGI [35]: 55.4 µM | GI50 [36]: 13.3 µM | TGI [36]: 26.6 µM | GI50 [37]: 4.65 µM | TGI [37]: 24.1 µM | GI50 [38]: 16.3 µM | TGI [38]: 30.4 µM | GI50 [39]: 11.8 µM | TGI [39]: 25.4 µM | GI50 [40]: 15.5 µM | TGI [40]: 30.4 µM | GI50 [41]: 14.7 µM | TGI [41]: 29.6 µM | GI50 [42]: 16.6 µM | TGI [42]: 31.9 µM | GI50 [43]: 9.92 µM | TGI [43]: 23.3 µM | GI50 [44]: 15.3 µM | TGI [44]: 29.2 µM | GI50 [45]: 11.1 µM | TGI [45]: 23.5 µM | GI50 [46]: 2.73 µM | TGI [46]: 10.4 µM | GI50 [47]: 15.3 µM | TGI [47]: 32.4 µM | GI50 [48]: 16.2 µM | TGI [48]: 40.2 µM | GI50 [49]: 13.9 µM | TGI [49]: 28.1 µM | GI50 [50]: 3.46 µM | TGI [50]: 20.3 µM | GI50 [51]: 11.7 µM | TGI [51]: 25.9 µM | GI50 [52]: 1.86 µM | TGI [52]: 3.63 µM | GI50 [1]: 6.28 µM | TGI [1]: 19.5 µM | GI50 [53]: 16.8 µM | TGI [53]: 32.1 µM | GI50 [54]: 14.3 µM | TGI [54]: 28.7 µM | GI50 [55]: 14.5 µM | TGI [55]: 29.7 µM | GI50 [56]: 7.31 µM | TGI [56]: 20.6 µM
